According to patent publication US20180110754A1, “CENICRIVIROC FOR THE TREATMENT OF FIBROSIS” (Tobira Therapeutics, Inc., priority 2015, published 2018):

What was measured:
Assay type in all cases: in vivo, human
[1] = tested on: HIV-1; assay: Study 202 Phase 2b: virologic response (HIV-1 RNA <50 copies/mL, FDA Snapshot)
Source text: Subjects with a history of HIV-2, hepatitis B and/or C, cirrhosis of the liver or any known active or chronic active liver disease were excluded from the study.
The primary efficacy endpoint was virologic response at Week 24, defined as HIV-1 RNA<50 copies/mL using the FDA Snapshot Algorithm.

[2] = tested on: APRI and FIB-4 scores; assay: Study 202 post-hoc APRI and FIB-4 fibrosis index scores
Procedure: APRI and FIB-4 scores were calculated. Change in score category from baseline (BL) to Weeks 24 and 48 was assessed in patients with non-missing data. Correlations between changes from BL in APRI and FIB-4 scores, and MCP-1 (CCR2 ligand) and sCD14 (inflammatory biomarker) levels were evaluated.

[3] = tested on: MCP-1, sCD14, hs-CRP, IL-6, D-dimer, fibrinogen; assay: Study 202: biomarkers of inflammation and immune function
Procedure: As an exploratory analysis, levels of inflammation biomarkers MCP-1, sCD14, high sensitivity C-reactive protein [hs-CRP], interleukin-6 [IL-6], D-dimer, and fibrinogen) were measured. Baseline values and changes from baseline at Week 24 and Week 48 of MCP-1, sCD14, hs-CRP, IL-6, D-dimer, and fibrinogen are summarized in Table 25.
The sCD14 samples were originally analyzed in 2 separate batches: Batch 1 included samples leading up to the Week 24 primary analysis and Batch 2 included Week 32 and Week 48 (end of study) samples. A repeat analysis of archived samples all analyzed in one batch was conducted for consistency in analysis across time points. To control for the effects of covariates, a linear mixed-model repeated-measures analysis was conducted on the changes from baseline in sCD14 (analysis dated September 2013).

CCCCOCCOc1ccc(-c2ccc3c(c2)/C=C(/C(=O)Nc2ccc([S@@+]([O-])Cc4cncn4CCC)cc2)CCCN3CC(C)C)cc1 [CVC, (S)-8-[4-(2-Butoxyethoxy)phenyl]-1-isobutyl-N-(4-{[(1-propyl-1H-imidazol-5-yl)methyl]sulfinyl}phenyl)-1,2,3,4-tetrahydro-1-benzazocine-5-carboxamide]
Virologic success (HIV-1 RNA <50 copies/mL) ([1]; CVC 100 mg + FTC/TDF, Week 24): 76% | Virologic success (HIV-1 RNA <50 copies/mL) ([1]; CVC 100 mg + FTC/TDF, Week 48): 68% | Virologic success (HIV-1 RNA <50 copies/mL) ([1]; CVC 200 mg + FTC/TDF, Week 24): 73% | Virologic success (HIV-1 RNA <50 copies/mL) ([1]; CVC 200 mg + FTC/TDF, Week 48): 64% | Patients in APRI category 0.5-1.5 ([2]; Baseline): 14% | Patients in APRI category >1.5 ([2]; Baseline): 2% | Patients in FIB-4 category 1.45-3.25 ([2]; Baseline): 17% | Patients in FIB-4 category <1.45 ([2]; Baseline): 82% | Patients in FIB-4 category >3.25 ([2]; Baseline): 1% | Patients in APRI category <0.5 ([2]; Baseline, CVC pooled 100/200 mg or EFV): 84% | Patients in APRI category 0.5-1.5 ([2]; Week 24): 7% | Patients in APRI category <0.5 ([2]; Week 24): 93% | Patients in FIB-4 category 1.45-3.25 ([2]; Week 24): 7% | Patients in FIB-4 category <1.45 ([2]; Week 24): 93% | Patients with APRI decreased 1 category from baseline ([2]; Week 24): 14% | Patients with FIB-4 decreased 1 category from baseline ([2]; Week 24): 13% | Patients in APRI category 0.5-1.5 ([2]; Week 48): 8% | Patients in APRI category <0.5 ([2]; Week 48): 91% | Patients in APRI category >1.5 ([2]; Week 48): 1% | Patients in FIB-4 category 1.45-3.25 ([2]; Week 48): 5% | Patients in FIB-4 category <1.45 ([2]; Week 48): 94% | Patients in FIB-4 category >3.25 ([2]; Week 48): 1% | Patients with APRI decreased 1 category from baseline ([2]; Week 48): 10% | Patients with FIB-4 decreased 1 category from baseline ([2]; Week 48): 14% | Subjects with improvements in APRI and FIB-4 scores over time ([2]; all CVC-treated subjects (pooled 100 mg and 200 mg)): ≥ 10% | D-dimer baseline value, mean ([3]; CVC 100 mg): 187 ng/mL | D-dimer baseline value, median ([3]; CVC 100 mg): 150 ng/mL | D-dimer change from baseline at Week 24, mean ([3]; CVC 100 mg): -32 ng/mL | D-dimer change from baseline at Week 24, median ([3]; CVC 100 mg): -1.0 ng/mL | D-dimer change from baseline at Week 48, mean ([3]; CVC 100 mg): -41 ng/mL | D-dimer change from baseline at Week 48, median ([3]; CVC 100 mg): -1.0 ng/mL | Fibrinogen baseline value, mean ([3]; CVC 100 mg): 236 mg/dL | Fibrinogen baseline value, median ([3]; CVC 100 mg): 229 mg/dL | Fibrinogen change from baseline at Week 24, mean ([3]; CVC 100 mg): -3 mg/dL | Fibrinogen change from baseline at Week 24, median ([3]; CVC 100 mg): -14 mg/dL | Fibrinogen change from baseline at Week 48, mean ([3]; CVC 100 mg): 11 mg/dL | Fibrinogen change from baseline at Week 48, median ([3]; CVC 100 mg): 15 mg/dL | IL-6 baseline value, mean ([3]; CVC 100 mg): 2.51 pg/mL | IL-6 baseline value, median ([3]; CVC 100 mg): 1.90 pg/mL | IL-6 change from baseline at Week 24, mean ([3]; CVC 100 mg): 0.42 pg/mL | IL-6 change from baseline at Week 24, median ([3]; CVC 100 mg): 0.00 pg/mL | IL-6 change from baseline at Week 48, mean ([3]; CVC 100 mg): 0.29 pg/mL | IL-6 change from baseline at Week 48, median ([3]; CVC 100 mg): 0.00 pg/mL | MCP-1 baseline value, mean ([3]; CVC 100 mg): 128 pg/mL | MCP-1 baseline value, median ([3]; CVC 100 mg): 110 pg/mL | MCP-1 change from baseline at Week 24, mean ([3]; CVC 100 mg): 493 pg/mL | MCP-1 change from baseline at Week 24, median ([3]; CVC 100 mg): 429 pg/mL | MCP-1 change from baseline at Week 48, mean ([3]; CVC 100 mg): 636 pg/mL | MCP-1 change from baseline at Week 48, median ([3]; CVC 100 mg): 523 pg/mL | hs-CRP baseline value, mean ([3]; CVC 100 mg): 0.39 mg/dL | hs-CRP baseline value, median ([3]; CVC 100 mg): 0.15 mg/dL | hs-CRP change from baseline at Week 24, mean ([3]; CVC 100 mg): -0.16 mg/dL | hs-CRP change from baseline at Week 24, median ([3]; CVC 100 mg): -0.03 mg/dL | hs-CRP change from baseline at Week 48, mean ([3]; CVC 100 mg): -0.08 mg/dL | hs-CRP change from baseline at Week 48, median ([3]; CVC 100 mg): -0.01 mg/dL | sCD14 (original values) baseline value, mean ([3]; CVC 100 mg): 1.8e+06 pg/mL | sCD14 (original values) baseline value, median ([3]; CVC 100 mg): 1.73e+06 pg/mL | sCD14 (original values) change from baseline at Week 12, mean ([3]; CVC 100 mg): -140000 pg/mL | sCD14 (original values) change from baseline at Week 12, median ([3]; CVC 100 mg): -160000 pg/mL | sCD14 (original values) change from baseline at Week 24, mean ([3]; CVC 100 mg): -190000 pg/mL | sCD14 (original values) change from baseline at Week 24, median ([3]; CVC 100 mg): -180000 pg/mL | sCD14 (original values) change from baseline at Week 32, mean ([3]; CVC 100 mg): 110000 pg/mL | sCD14 (original values) change from baseline at Week 32, median ([3]; CVC 100 mg): 120000 pg/mL | sCD14 (original values) change from baseline at Week 48, mean ([3]; CVC 100 mg): 100000 pg/mL | sCD14 (original values) change from baseline at Week 48, median ([3]; CVC 100 mg): 100000 pg/mL | D-dimer baseline value, mean ([3]; CVC 200 mg): 184 ng/mL | D-dimer baseline value, median ([3]; CVC 200 mg): 125 ng/mL | D-dimer change from baseline at Week 24, mean ([3]; CVC 200 mg): -64 ng/mL | D-dimer change from baseline at Week 24, median ([3]; CVC 200 mg): -50 ng/mL | D-dimer change from baseline at Week 48, mean ([3]; CVC 200 mg): -70 ng/mL | D-dimer change from baseline at Week 48, median ([3]; CVC 200 mg): -50 ng/mL | Fibrinogen baseline value, mean ([3]; CVC 200 mg): 248 mg/dL | Fibrinogen baseline value, median ([3]; CVC 200 mg): 260 mg/dL | Fibrinogen change from baseline at Week 24, mean ([3]; CVC 200 mg): -7 mg/dL | Fibrinogen change from baseline at Week 24, median ([3]; CVC 200 mg): -8 mg/dL | Fibrinogen change from baseline at Week 48, mean ([3]; CVC 200 mg): -10 mg/dL | Fibrinogen change from baseline at Week 48, median ([3]; CVC 200 mg): -13 mg/dL | IL-6 baseline value, mean ([3]; CVC 200 mg): 3.34 pg/mL | IL-6 baseline value, median ([3]; CVC 200 mg): 1.90 pg/mL | IL-6 change from baseline at Week 24, mean ([3]; CVC 200 mg): 0.81 pg/mL | IL-6 change from baseline at Week 24, median ([3]; CVC 200 mg): 0.00 pg/mL | IL-6 change from baseline at Week 48, mean ([3]; CVC 200 mg): -0.04 pg/mL | IL-6 change from baseline at Week 48, median ([3]; CVC 200 mg): 0.00 pg/mL | MCP-1 baseline value, mean ([3]; CVC 200 mg): 153 pg/mL | MCP-1 baseline value, median ([3]; CVC 200 mg): 137 pg/mL | MCP-1 change from baseline at Week 24, mean ([3]; CVC 200 mg): 753 pg/mL | MCP-1 change from baseline at Week 24, median ([3]; CVC 200 mg): 695 pg/mL | MCP-1 change from baseline at Week 48, mean ([3]; CVC 200 mg): 900 pg/mL | MCP-1 change from baseline at Week 48, median ([3]; CVC 200 mg): 756 pg/mL | hs-CRP baseline value, mean ([3]; CVC 200 mg): 0.46 mg/dL | hs-CRP baseline value, median ([3]; CVC 200 mg): 0.15 mg/dL | hs-CRP change from baseline at Week 24, mean ([3]; CVC 200 mg): -0.04 mg/dL | hs-CRP change from baseline at Week 24, median ([3]; CVC 200 mg): -0.04 mg/dL | hs-CRP change from baseline at Week 48, mean ([3]; CVC 200 mg): -0.18 mg/dL | hs-CRP change from baseline at Week 48, median ([3]; CVC 200 mg): -0.04 mg/dL | sCD14 (original values) baseline value, mean ([3]; CVC 200 mg): 1.88e+06 pg/mL | sCD14 (original values) baseline value, median ([3]; CVC 200 mg): 1.86e+06 pg/mL | sCD14 (original values) change from baseline at Week 12, mean ([3]; CVC 200 mg): -230000 pg/mL | sCD14 (original values) change from baseline at Week 12, median ([3]; CVC 200 mg): -210000 pg/mL | sCD14 (original values) change from baseline at Week 24, mean ([3]; CVC 200 mg): -230000 pg/mL | sCD14 (original values) change from baseline at Week 24, median ([3]; CVC 200 mg): -190000 pg/mL | sCD14 (original values) change from baseline at Week 32, mean ([3]; CVC 200 mg): -20000 pg/mL | sCD14 (original values) change from baseline at Week 32, median ([3]; CVC 200 mg): -20000 pg/mL | sCD14 (original values) change from baseline at Week 48, mean ([3]; CVC 200 mg): -40000 pg/mL | sCD14 (original values) change from baseline at Week 48, median ([3]; CVC 200 mg): -40000 pg/mL
